Results from US20230151376A1, “ORGANELLE TRANSFORMANT SCREENING METHOD” (NATIONAL UNIVERSITY CORPORATION KOBE UNIVERSITY, priority 2020, published 2023).

Key:
[1] = test system: Arabidopsis thaliana cultured cells 87T; assay: Concerted sensitivity test on herbicide and antibiotic in Arabidopsis thaliana cultured cells; format: cell-based; conditions: for inhibition of the growth rate in combination with spectinomycin: both spectinomycin and herbicide, effect not observed with individual administration of the same concentration
Experimental: Arabidopsis thaliana cultured cells 87T were used in the experiment. Media comprising different concentrations of a group of herbicides and spectinomycin using a redifferentiation medium (Q. Yu. et al. Plant Physiol. 2017. 175(1). 186-193) as the base were added to each well of a 24-well plate. Specifically, a plate with varying concentrations of the group of herbicides of 0, 0.1, 1, 10, 50, and 100 μM in the direction of the X-axis of the plate and varying concentrations of an antibiotic spectinomycin of 0, 1, 10, and 100 μg/mL in the direction of the y-axis was prepared (FIG. 9A). Pinoxaden, tepraloxydim, tralkoxydim, cyhalofop butyl, and haloxyfop were used as the group of herbicides in each plate. 100 μL of cultured cells was added to each well and cultured under light-dark conditions in an artificial climate incubator. On days 3, 7, and 15 after culture, the growth status was checked to study the concerted sensitivity of a herbicide and antibiotic. • Results

Oryza sativa callus = assay: Herbicide selection of Oryza sativa callus on redifferentiation selection medium after plasmid bombardment; format: cell-based, Oryza sativa japonica (Nipponbare); conditions: callus introduced with pNC (no resistance) sensitive; redifferentiated individuals counted after about 6 weeks; tested 0.1-4.0 μM
Experimental: For the experiment, Oryza sativa japonica (Nipponbare) was used. Threshed Oryza sativa seeds were placed in a callus inducing medium, i.e., an N6D medium (Z. Shimatani et al. Nat Biol. 2017), and grown under conditions of 25° C. away from light within an artificial climate incubator to induce a primary callus. To prepare a callus plate for introducing a gene, the primary callus that had been actively growing for several weeks since induction of the callus from seeds was strained using a sterilized mesh. The refined callus was uniformly applied on filter paper placed on a callus inducing medium plate. A gene was introduced to a plate obtained by culturing the callus for 3 to 4 days within the artificial climate incubator. For selection of a transformant, a redifferentiation medium which is an MSRE medium (Z. Shimatani et al. Nat Biol. 2017) added with a suitable herbicide was used and cultured under conditions of 31.5° C. in a light-dark cycle of 12 hours within the artificial climate incubator. […]
After introduction of a gene, the plate was subjected to expansion culture under dark conditions in the artificial climate incubator for 3 to 4 days. […] The number of individuals redifferentiated from the callus clumps was counted as the selected individual count. • <Detection of Transgenesis in a Created Individual>

SMILES | concentration at which a selection effect of the herbicide can be expected (Oryza sativa callus) [µM] | inhibition of the growth rate in combination with spectinomycin [1] | also measured
CCCCOC(=O)[C@@H](C)Oc1ccc(Oc2ccc(C#N)cc2F)cc1 [cyhalofop butyl] |  |  | inhibition of the growth rate by herbicide alone ([1]; herbicide alone, within the range of concentrations studied (0-100 μM)): not observed
CC(Oc1ccc(Oc2ncc(C(F)(F)F)cc2Cl)cc1)C(=O)O (centres unmarked) [haloxyfop] | ≥ 0.1 | significant inhibition of the growth rate | 
CCc1cc(C)cc(CC)c1-c1c(OC(=O)C(C)(C)C)n2n(c1=O)CCOCC2 [pinoxaden] |  | significant inhibition of the growth rate | herbicide concentration at which inhibition of growth was observed ([1]; herbicide alone, tested 0-100 μM, growth checked on days 3, 7, 15): ≥ 10 µM
CN[C@@H]1[C@H](O)[C@H](NC)[C@H]2O[C@@]3(O)C(=O)C[C@@H](C)O[C@H]3O[C@@H]2[C@H]1O [spectinomycin] |  |  | colour of cultured cells (chloroplast development) ([1]; 100 μg/mL spectinomycin): Change in color to yellow; inhibition of the growth rate by spectinomycin alone ([1]; only spectinomycin, concentration range studied (0-100 μg/mL)): not inhibited
CCO/N=C(\CC)C1=C(O)CC(c2c(C)cc(C)cc2C)CC1=O (centres unmarked) [tralkoxydim] | ≥ 0.5 |  | 
